{"source": "paper PMC7002685", "about": "“Inhibition of vascular calcification by inositol phosphates derivatized with ethylene glycol oligomers” (Nature Communications, 2020)", "key": {"[1]": {"assay": "PK in healthy rats, i.v. bolus", "format": "in vivo, male Sprague-Dawley rats", "details": "for Clobs / plasma concentration / Cmax / AUC(0-t) / MRT: 10 mg/kg i.v.; for half-life / Cmax / Vd / AUC(0-t) / MRT: Sprague-Dawley, rat, iv; for half-life: healthy male rats; for Cmax / Vd / AUC(0-t) / MRT: male; for Vd: read-out: apparent volume of distribution; for MRT: read-out: mean residence time (MRT) (converted)", "description": "All PK studies in healthy animals were performed by the contract research organization Aphad S.r.l. (Milan, Italy). In all studies, compounds were administered as a salt, and the doses and plasma quantitation refer to the acid form. PK parameters listed in Supplementary Table 13 were derived from measured plasma concentrations applying noncompartmental analysis. Concentration data were extrapolated using the software Analyst™ 6.1 (Applied Biosystems, Foster City, CA, USA), the area under the plasma concentration vs. time curve (AUC) was calculated by linear trapezoidal rule using PK solver 2.0 add-in for Microsoft Excel 2007 (available for download in[83]), and a uniform weight was performed as a first general approach.\nTo study PK in healthy animals, male Sprague-Dawley rats (Harlan, Correzzana, Italy) were housed up to three per cage with free access to water and standard chow (pellets 12 mm, global diet 2018 certificate, Mucedola, Srl, Settimo Milanese, Italy), and submitted to a 12-h light/dark cycle. Animals were administered i.v. 10 mg/kg of (OEG2)2-IP4 in saline solution i.v. (30 s bolus, 5 mL/kg) and s.c. (5 mL/kg), respectively, in three animals per route and treatment. […] Plasma calcium concentration was determined in pre-dose samples and in t = 30 min samples of both acute and chronic treatments using the calcium colorimetric assay. Blood samples of 100 µL were drawn at several time points from the caudal vein, centrifuged at (3000 × g, 4 °C, 10 min) and stored at −80 °C until analysis by liquid chromatography–tandem mass spectrometry (LC-MS/MS).\nThe column used for (OEG2)2-IP4 was Kinetex C8 50 × 2.1 mm, 2.6 μm 100 A (Phenomenex, Basel, Switzerland), thermostated at 35 °C. […] Quantitation was carried out as total ion current on the sum of the MRM transitions. […] Samples were agitated 5 min on a […] orbital shaker and centrifuged (16,000 × g, 5 °C, 20 min). […] Samples were then subjected to LC-MS/MS. Rat PK samples were prepared for analysis in an analogous manner as done for spiked samples. The lower limit of quantification (LLOQ) and detection (LOD) in rat plasma for (OEG2)2-IP4 were 25 and 10 ng/mL, respectively. The upper limit of quantification (ULOQ) and detection was 5000 ng/mL."}, "primary human VSMCs [2]": {"test_system": "primary human VSMCs", "assay": "CPP2-induced VSMC calcification", "format": "cell-based", "details": "for VSMC calcium deposition, % of CPP2 control: CPP2 50 µg Ca/mL", "description": "Macrophage accumulation and inflammation coincide with the initial phase of calcification. To this end, VSMCs and THP-1-derived macrophages were exposed to CPP2-supplemented medium. CPP2 prepared from human serum as described previously[61] (Supplementary Figs. 6 and 7), induced a pronounced VSMC monolayer calcification after 48 h, which was decreased by (OEG2)2-IP4 in a dose-dependent fashion, and the effect became significant at 10 µM (Fig. 3e). […] Both H2O2 (proxy for oxidative stress) and tumor necrosis factor-alpha (TNF-α) (proxy for inflammatory response) levels were assayed in the VSMC culture supernatants subsequent to CPP2 treatment with and without compounds[30]. However, no increase in H2O2 nor TNF-α compared to control could be detected in either assay. For the CPP-induced VSMC calcification assay (Fig. 3e) a roughly 10-fold higher concentration of (OEG2)2-IP4 was necessary to achieve similar activity as in the CaP-induced VSMC calcification assay (Fig. 3b). […] In the CaP assay, low inhibitor concentration may be sufficient to inhibit crystal nucleation, whereas for the CPP assay higher inhibitor concentrations may be needed to achieve sufficient particle stabilization by chemisorption of inhibitor onto CPPs. Similar results have been reported for hydrogen sulfide in the context of VC[62],[64]. […] An increase in the TNFα levels in the cell culture supernatants was not observed for (OEG2)2-IP4 with (Fig. 3h) and without (Supplementary Fig. 10) combined CPP2 treatment.\n(§1) Primary human VSMCs (C-12533, PromoCell, Heidelberg, Germany) were cultured according to the manufacturer's guidelines in SMC-2 culture medium (C-22062, PromoCell) and used up to passage 7. For calcification experiments cells were seeded onto 24-well plates (TPP) at a density of 20,000 cells/well and left to attach for 48–72 h. Complete medium was M199 medium (31150022, Thermo Fischer Scientific), supplemented with 10% v/v FBS (10270106, Thermo Fisher Scientific, Waltham, MA), 1% v/v penicillin/streptomycin (15140122, Thermo Fisher Scientific), and 4 mM L-glutamine (25030024, Thermo Fisher Scientific)[80]. Calcification of cell monolayers was induced as described previously[81] by treatment with CPP2-supplemented (50 µg Ca/mL) medium with or without test compounds (1, 3, 10, 30, and 100 µM) at a volume of 1 mL/well for 48 h at 37 °C, 5% CO2. In a second assay, calcification was induced similar to previous experiments[56] by cell treatment with or without test compounds (0.01, 0.1, 1, 10, and 100 µM) in complete medium supplemented with calcium (2.7 mM) and phosphate (2.5 mM) (CaP medium) at a volume of 1 mL/well for 5 days, and treatment medium was replaced on alternate days.\n(§2) Calcium deposition on cell monolayers was assessed qualitatively by staining for calcium with 2% w/v Alizarin Red S aqueous solution (pH 4.2) (05600, Fluka Analytical). Cell monolayers in 24-well plates were washed with PBS (10010015, Thermo Fischer), fixed in 10% v/v NBF in PBS (F8775, Sigma-Aldrich) for 45 min at RT, washed with milli-Q water, incubated for 3 min with 300 µL Alizarin Red S solution, washed with milli-Q, and images were acquired using a Axiovert 35 microscope (Zeiss, Carl Zeiss Microscopy GmbH, Jena, Germany) at ×100 magnification. Calcium quantitation was performed after washing cells with PBS and then decalcifying cell monolayers with 0.1 M HCl overnight at 4 °C. Acidic supernatants were centrifuged (10,000 × g, 4 °C, 10 min) and calcium content was assessed using the calcium colorimetric assay."}, "primary human VSMCs [3]": {"test_system": "primary human VSMCs", "assay": "High-CaP medium-induced VSMC calcification", "format": "cell-based", "details": "for VSMC calcium deposition, % of high-CaP control: high-CaP medium, 5 days", "description": "Incubation of VSMCs in high-CaP medium induced cell monolayer calcification after 5 days (Fig. 3b). […] The effect became significant from 0.1 µM (OEG2)2-IP4 on, where a 54% reduction in calcification was observed compared to untreated high-CaP medium-exposed cells.\nas §1, §2"}}, "note": "Values joined by “and” are separate entries in the source; they are usually repeats but may differ in a detail not shown here. Equal entries are not always repeated. Where two headings read alike, the source gives them in different places."}
{"smiles": "COCCOCCO[C@@H]1[C@@H](OP(=O)(O)O)[C@H](OCCOCCOC)[C@@H](OP(=O)(O)O)[C@@H](OP(=O)(O)O)[C@H]1OP(=O)(O)O", "note": "[(OEG2)2-IP4, 4,6-Di-O-(methoxy-diethyleneglycol)-myo-inositol-1,2,3,5-tetrakis(phosphate)]", "values": [{"measurement": "Clobs", "setting": "[1]", "result": "7.6 ± 0.5", "unit": "mL/min/kg"}, {"measurement": "fold increase in plasmatic t1/2 vs IP6", "setting": "[1]; 10 mg/kg i.v. bolus", "result": "~10", "unit": "fold"}, {"measurement": "plasma concentration", "setting": "[1]; 5 min, individual rats Fig. 4a, unit not printed (µM per Fig. 4b), listed as INS-3001", "result": "41.12 and 47.02 and 66.21"}, {"measurement": "plasma concentration", "setting": "[1]; 15 min, unit not given, listed as INS-3001", "result": "26.41 and 24.63 and 34.38"}, {"measurement": "plasma concentration", "setting": "[1]; 30 min, unit not given, listed as INS-3001", "result": "14.11 and 13.26 and 19.44"}, {"measurement": "plasma concentration", "setting": "[1]; 60 min, unit not given, listed as INS-3001", "result": "5.04 and 6 and 6.96"}, {"measurement": "plasma concentration", "setting": "[1]; 90 min, unit not given, listed as INS-3001", "result": "2.07 and 1.64 and 1.72"}, {"measurement": "plasma concentration", "setting": "[1]; 240 min, unit not given, listed as INS-3001", "result": "0.15 and 0.13"}, {"measurement": "plasma concentration", "setting": "[1]; 360 min, unit not given, listed as INS-3001", "result": "0.06 and 0.04 and 0.08"}, {"measurement": "half-life", "setting": "[1]; in vivo, 10 mg/kg i.v. bolus", "result": "78 ± 32", "unit": "min"}, {"measurement": "Cmax", "setting": "[1]; in vivo", "result": "52 ± 13", "unit": "µM"}, {"measurement": "Vd", "setting": "[1]; in vivo, 10 mg/kg i.v. bolus", "result": "0.234 ± 0.032", "unit": "L/kg"}, {"measurement": "AUC(0-t)", "setting": "[1]; in vivo, t = 360 min", "result": 26.1, "unit": "µM·h"}, {"measurement": "MRT", "setting": "[1]; in vivo", "result": 30, "unit": "min"}, {"measurement": "fold higher concentration necessary in CPP-induced vs CaP-induced VSMC calcification assay", "setting": "primary human VSMCs [2]", "result": "roughly 10 fold"}, {"measurement": "VSMC calcium deposition, % of CPP2 control", "setting": "primary human VSMCs [2]; 1 µM, 48 h, replicates Fig. 3e", "result": "88.4113% and 80.5453% and 68.3456% and 69.0785%"}, {"measurement": "VSMC calcium deposition, % of CPP2 control", "setting": "primary human VSMCs [2]; 3 µM, 48 h", "result": "92.4907% and 73.6279% and 53.9051% and 56.3804%"}, {"measurement": "concentration at which decrease of CPP2-induced calcification became significant", "setting": "primary human VSMCs [2]; 48 h", "result": 10, "unit": "µM"}, {"measurement": "VSMC calcium deposition, % of high-CaP control", "setting": "primary human VSMCs [3]; 0.01 µM, replicates Fig. 3b", "result": "129.5% and 91.16% and 131.6%"}, {"measurement": "reduction in calcification vs untreated high-CaP medium-exposed cells", "setting": "primary human VSMCs [3]; 0.1 µM", "result": 54, "unit": "%"}, {"measurement": "VSMC calcium deposition, % of high-CaP control", "setting": "primary human VSMCs [3]; 0.1 µM", "result": "56.69% and 37.74% and 44.37%"}, {"measurement": "VSMC calcium deposition, % of high-CaP control", "setting": "primary human VSMCs [3]; 1 µM", "result": "4.7% and 5.812% and 10.69%"}, {"measurement": "VSMC calcium deposition, % of high-CaP control", "setting": "primary human VSMCs [3]; 10 µM", "result": "4.402% and -0.7134% and 6.025%"}, {"measurement": "VSMC calcium deposition, % of high-CaP control", "setting": "primary human VSMCs [3]; 100 µM", "result": "4.139% and 1.382% and 4.723%"}, {"measurement": "calcium deposition", "setting": "primary human VSMCs [3]; above 1 µM", "result": "almost completely abrogated"}]}
{"smiles": "O=P(O)(O)O[C@H]1[C@H](OP(=O)(O)O)[C@@H](OP(=O)(O)O)[C@H](OP(=O)(O)O)[C@@H](OP(=O)(O)O)[C@H]1OP(=O)(O)O", "note": "[IP6, myo-Inositol hexakisphosphate]", "values": [{"measurement": "Clobs", "setting": "[1]", "result": "68.5 ± 21.2", "unit": "mL/min/kg"}, {"measurement": "plasma concentration", "setting": "[1]; 5 min, individual rats Fig. 4a, unit not printed (µM per Fig. 4b)", "result": "13.9 and 17.5 and 6.9 and 6.5 and 5.5 and 5.1"}, {"measurement": "half-life", "setting": "[1]; plasma, 10 mg/kg i.v. bolus", "result": "8 ± 2", "unit": "min"}, {"measurement": "Cmax", "setting": "[1]; plasma", "result": "13 ± 6", "unit": "µM"}, {"measurement": "Vd", "setting": "[1]; plasma, 10 mg/kg i.v. bolus", "result": "0.958 ± 0.405", "unit": "L/kg"}, {"measurement": "AUC(0-t)", "setting": "[1]; plasma, t = 30 min", "result": 3.77, "unit": "µM·h"}, {"measurement": "MRT", "setting": "[1]; plasma", "result": 14, "unit": "min"}, {"measurement": "VSMC calcium deposition, % of CPP2 control", "setting": "primary human VSMCs [2]; 1 µM, 48 h, replicates Fig. 3e", "result": "77.8896% and 82.8838% and 86.0538% and 91.73%"}, {"measurement": "VSMC calcium deposition, % of CPP2 control", "setting": "primary human VSMCs [2]; 3 µM, 48 h", "result": "95.5105% and 90.2183% and 79.3785% and 87.2842%"}, {"measurement": "VSMC calcium deposition, % of CPP2 control", "setting": "primary human VSMCs [2]; 10 µM, 48 h", "result": 37.8415, "unit": "%"}, {"measurement": "VSMC calcium deposition, % of CPP2 control", "setting": "primary human VSMCs [2]; 30 µM, 48 h", "result": "57.6847% and 47.1535% and 71.7458% and 75.8811%"}, {"measurement": "VSMC calcium deposition, % of CPP2 control", "setting": "primary human VSMCs [2]; 100 µM, 48 h", "result": "79.2544% and 65.4345% and 85.4719%"}, {"measurement": "VSMC calcium deposition, % of high-CaP control", "setting": "primary human VSMCs [3]; 0.01 µM, replicates Fig. 3b", "result": "45.78% and 57.03% and 44%"}, {"measurement": "VSMC calcium deposition, % of high-CaP control", "setting": "primary human VSMCs [3]; 1 µM", "result": "43.35% and 32.19% and 33.2%"}, {"measurement": "VSMC calcium deposition, % of high-CaP control", "setting": "primary human VSMCs [3]; 10 µM", "result": "27.4% and 34.12% and 27.96%"}, {"measurement": "reduction of VSMC mineralization", "setting": "primary human VSMCs [3]; all doses studied (up to 100 µM)", "result": "50–70%"}]}
